In brackets after ≈: the same amount, converted by molar mass.
Tests used:
Test in all cases: ≥ marks a high value that may be exact or a test limit, other limits are often not marked, values filed in µg/mL are converted to µM
[1] = test system: Escherichia coli ATCC 25922
[2] = test system: Klebsiella pneumoniae ATCC 700603
[3] = test system: Pseudomonas aeruginosa ATCC 27853
[4] = test system: Staphylococcus aureus ATCC 29213
[5] = test system: Staphylococcus aureus ATCC 33591
[6] = test system: Staphylococcus aureus ATCC 700699
[7] = test system: Bacillus subtilis KCTC 3068
Enterococcus faecalis VR = test system: Enterococcus faecalis VR
Enterococcus faecalis = test system: Enterococcus faecalis
Enterococcus faecium VR = test system: Enterococcus faecium VR
Enterococcus faecium = test system: Enterococcus faecium
[8] = test system: Escherichia coli KCTC 1682
[9] = test system: Pseudomonas aeruginosa KCTC 1637
[10] = test system: Salmonella typhimurium KCTC 1926
[11] = test system: Staphylococcus aureus KCTC 1621
Staphylococcus aureus MR = test system: Staphylococcus aureus MR
[12] = test system: Staphylococcus epidermidis KCTC 1917
[13] = test system: Candida albicans ATCC 90028
Candida albicans SC5314 = test system: Candida albicans SC5314
Candida krusei ATCC 6258 = test system: Candida krusei ATCC 6258
[14] = test system: Candida parapsilosis ATCC 22019
Candida glabrata 090902 = test system: Candida glabrata 090902
[15] = test system: Enterococcus faecalis 981
[16] = test system: Nocardia asteroides 201118
[17] = test system: Staphylococcus aureus ATCC 25923

## CC[C@H](C)[C@H](NC(=O)[C@H](CC(=O)O)NC(=O)[C@H](CCCCN)NC(=O)[C@H](C)NC(=O)[C@H](C)NC(=O)CNC(=O)[C@H](CCCCN)NC(=O)[C@H](CC(C)C)NC(=O)[C@@H](NC(=O)[C@H](CC(=O)O)NC(=O)[C@@H](NC(=O)[C@@H](NC(=O)[C@H](C)N)C(C)C)C(C)C)[C@@H](C)CC)C(=O)N[C@@H](C)C(=O)NCC(=O)N[C@@H](Cc1cnc[nH]1)C(=O)N[C@@H](CC(C)C)C(=O)N[C@@H](C)C(=O)N[C@@H](CO)C(=O)N[C@@H](CCCCN)C(=O)N[C@H](C(=O)N[C@@H](CCSC)C(=O)N[C@@H](CC(N)=O)C(=O)N[C@@H](CCCCN)C(=O)N[C@@H](CC(C)C)C(N)=O)C(C)C [AVVDILKGAAKDIAGHLASKVMNKL]
[1]
  MIC: > 100 µM
[2]
  MIC: > 100 µM
[3]
  MIC: > 100 µM
[4]
  MIC: > 100 µM
[5]
  MIC: ≥ 100 µM
[6]
  MIC: ≥ 100 µM

## CC[C@H](C)[C@H](NC(=O)[C@H](CS)NC(=O)[C@H](Cc1cnc[nH]1)NC(=O)[C@H](C)NC(=O)[C@H](C)N)C(=O)N[C@@H](C)C(=O)N[C@@H](CC(C)C)C(=O)N[C@@H](CCCN=C(N)N)C(=O)N[C@@H](CCCCN)C(=O)NCC(=O)N[C@@H](Cc1ccc(O)cc1)C(=O)N[C@@H](CCCCN)C(N)=O [AAHCIALRKGYK]
[7]
  MIC: 30 µM (≈ 39.9 µg/mL)
Enterococcus faecalis VR
  MIC: 15 µM (≈ 19.9 µg/mL)
Enterococcus faecalis
  MIC: 30 µM (≈ 39.9 µg/mL)
Enterococcus faecium VR
  MIC: 30 µM (≈ 39.9 µg/mL)
Enterococcus faecium
  MIC: 7.5 µM (≈ 9.97 µg/mL)
[8]
  MIC: 30 µM (≈ 39.9 µg/mL)
[9]
  MIC: 30 µM (≈ 39.9 µg/mL)
[10]
  MIC: 30 µM (≈ 39.9 µg/mL)
[11]
  MIC: 30 µM (≈ 39.9 µg/mL)
Staphylococcus aureus MR
  MIC: 30 µM (≈ 39.9 µg/mL)
[12]
  MIC: 30 µM (≈ 39.9 µg/mL)

## CC[C@H](C)[C@H](NC(=O)[C@@H](NC(=O)CN)C(C)C)C(=O)N[C@@H](CCCCN)C(=O)N[C@@H](C)C(=O)N[C@@H](C)C(=O)N[C@@H](CCCCN)C(=O)N[C@@H](CCCCN)C(=O)N[C@H](C(=O)N[C@H](C(=O)N[C@@H](CCCCN)C(=O)N[C@H](C(=O)N[C@@H](CC(C)C)C(=O)N[C@@H](CCCCN)C(=O)N[C@@H](CCCCN)C(=O)N[C@@H](CC(C)C)C(=O)N[C@@H](Cc1ccccc1)C(N)=O)C(C)C)C(C)C)C(C)C [GVIKAAKKVVKVLKKLF]
[13]
  MIC: ≥ 34.2 µM
Candida albicans SC5314
  MIC: 17.1 µM (≈ 32 µg/mL)
Candida krusei ATCC 6258
  MIC: 17.1 µM (≈ 32 µg/mL)
[14]
  MIC: 8.56 µM (≈ 16 µg/mL)

## CC(C)C[C@H](NC(=O)[C@H](CC(C)C)NC(=O)CNC(=O)[C@H](CO)NC(=O)[C@H](CC(C)C)NC(=O)[C@H](CC(C)C)NC(=O)[C@H](CCCCN)NC(=O)CNC(=O)[C@@H](NC(=O)[C@H](Cc1ccccc1)NC(=O)[C@@H]1CCCN1C(=O)[C@H](CC(C)C)NC(=O)[C@@H](N)Cc1ccccc1)C(C)C)C(N)=O [FLPFVGKLLSGLL]
Candida glabrata 090902
  MIC: ≥ 100 µM
[15]
  MIC: 25 µM (≈ 35.1 µg/mL)
[16]
  MIC: 12.5 µM (≈ 17.5 µg/mL)
[17]
  MIC: 12.5 µM (≈ 17.5 µg/mL)

## CC[C@H](C)[C@H](NC(=O)[C@@H](NC(=O)CN)C(C)C)C(=O)N[C@@H](CCCCN)C(=O)N[C@@H](C)C(=O)N[C@@H](C)C(=O)N[C@@H](CCCCN)C(=O)N[C@@H](CCCCN)C(=O)N[C@H](C(=O)N[C@H](C(=O)N[C@@H](CCCCN)C(=O)N[C@H](C(=O)N[C@@H](CC(C)C)C(=O)N[C@@H](CCCCN)C(=O)N[C@@H](CC(N)=O)C(=O)N[C@@H](CC(C)C)C(=O)N[C@@H](Cc1ccccc1)C(N)=O)C(C)C)C(C)C)C(C)C [GVIKAAKKVVKVLKNLF]
[13]
  MIC: ≥ 34.5 µM
Candida albicans SC5314
  MIC: 17.2 µM (≈ 32 µg/mL)
Candida krusei ATCC 6258
  MIC: 17.2 µM (≈ 32 µg/mL)
[14]
  MIC: 17.2 µM (≈ 32 µg/mL)

## CC[C@H](C)[C@H](NC(=O)[C@H](CS)NC(=O)[C@H](CC(N)=O)NC(=O)[C@H](C)NC(=O)[C@H](C)N)C(=O)N[C@H](C(=O)N[C@@H](CC(C)C)C(=O)NCC(=O)N[C@@H](CCCCN)C(=O)N[C@@H](C)C(N)=O)[C@@H](C)O [AANCITLGKA]
[7]
  MIC: 30 µM (≈ 28.8 µg/mL)
Enterococcus faecalis VR
  MIC: 30 µM (≈ 28.8 µg/mL)
Enterococcus faecalis
  MIC: 30 µM (≈ 28.8 µg/mL)
Enterococcus faecium VR
  MIC: 30 µM (≈ 28.8 µg/mL)
Enterococcus faecium
  MIC: 30 µM (≈ 28.8 µg/mL)
[8]
  MIC: 30 µM (≈ 28.8 µg/mL)
[9]
  MIC: 30 µM (≈ 28.8 µg/mL)
[10]
  MIC: 30 µM (≈ 28.8 µg/mL)
[11]
  MIC: 30 µM (≈ 28.8 µg/mL)
Staphylococcus aureus MR
  MIC: 30 µM (≈ 28.8 µg/mL)
[12]
  MIC: 30 µM (≈ 28.8 µg/mL)

## CC[C@H](C)[C@H](NC(=O)[C@H](CC(=O)O)NC(=O)[C@H](CCCCN)NC(=O)[C@H](C)NC(=O)[C@H](C)NC(=O)CNC(=O)[C@H](CCCCN)NC(=O)[C@H](CC(C)C)NC(=O)[C@@H](NC(=O)[C@H](CC(=O)O)NC(=O)[C@@H](NC(=O)[C@@H](NC(=O)CN)C(C)C)C(C)C)[C@@H](C)CC)C(=O)N[C@@H](C)C(=O)NCC(=O)N[C@@H](Cc1cnc[nH]1)C(=O)N[C@@H](CC(C)C)C(=O)N[C@@H](C)C(=O)N[C@@H](C)C(=O)N[C@@H](CCCCN)C(=O)N[C@H](C(=O)N[C@@H](CCSC)C(=O)N[C@@H](CC(N)=O)C(=O)N[C@@H](CCCCN)C(=O)N[C@@H](CC(C)C)C(N)=O)C(C)C [GVVDILKGAAKDIAGHLAAKVMNKL]
[1]
  MIC: 25 µM (≈ 63.3 µg/mL)
[2]
  MIC: 100 µM (≈ 253 µg/mL)
[3]
  MIC: 100 µM (≈ 253 µg/mL)
[4]
  MIC: > 100 µM
[5]
  MIC: ≥ 100 µM
[6]
  MIC: ≥ 100 µM

## CC[C@H](C)[C@H](NC(=O)[C@H](C)N)C(=O)N[C@@H](CCCN=C(N)N)C(=O)N[C@@H](CS)C(=O)N[C@@H](CC(C)C)C(=O)N[C@@H](C)C(=O)N[C@@H](CCCCN)C(=O)N[C@@H](CCCN=C(N)N)C(=O)N[C@@H](CCCN=C(N)N)C(=O)N[C@@H](CCCCN)C(N)=O [AIRCLAKRRK]
[7]
  MIC: 7.5 µM (≈ 9.1 µg/mL)
Enterococcus faecalis VR
  MIC: 30 µM (≈ 36.4 µg/mL)
Enterococcus faecalis
  MIC: 30 µM (≈ 36.4 µg/mL)
Enterococcus faecium VR
  MIC: 15 µM (≈ 18.2 µg/mL)
Enterococcus faecium
  MIC: 3.8 µM (≈ 4.61 µg/mL)
[8]
  MIC: 30 µM (≈ 36.4 µg/mL)
[9]
  MIC: 7.5 µM (≈ 9.1 µg/mL)
[10]
  MIC: 7.5 µM (≈ 9.1 µg/mL)
[11]
  MIC: 7.5 µM (≈ 9.1 µg/mL)
Staphylococcus aureus MR
  MIC: 7.5 µM (≈ 9.1 µg/mL)
[12]
  MIC: 7.5 µM (≈ 9.1 µg/mL)

## CC[C@H](C)[C@H](NC(=O)[C@H](C)NC(=O)[C@H](CCCCN)NC(=O)[C@H](C)NC(=O)[C@H](C)NC(=O)CNC(=O)[C@H](CCCCN)NC(=O)[C@H](CC(C)C)NC(=O)[C@@H](NC(=O)[C@H](CC(=O)O)NC(=O)[C@@H](NC(=O)[C@@H](NC(=O)CN)C(C)C)C(C)C)[C@@H](C)CC)C(=O)N[C@@H](C)C(=O)NCC(=O)N[C@@H](Cc1cnc[nH]1)C(=O)N[C@@H](CC(C)C)C(=O)N[C@@H](C)C(=O)N[C@@H](CO)C(=O)N[C@@H](CCCCN)C(=O)N[C@H](C(=O)N[C@@H](CCSC)C(=O)N[C@@H](CC(N)=O)C(=O)N[C@@H](CCCCN)C(=O)N[C@@H](CC(C)C)C(N)=O)C(C)C [GVVDILKGAAKAIAGHLASKVMNKL]
[1]
  MIC: 3.12 µM (≈ 7.81 µg/mL)
[2]
  MIC: 25 µM (≈ 62.6 µg/mL)
[3]
  MIC: 50 µM (≈ 125 µg/mL)
[4]
  MIC: 100 µM (≈ 250 µg/mL)
[5]
  MIC: 25 µM (≈ 62.6 µg/mL)
[6]
  MIC: ≥ 50 µM
